Consider nine molecules from publication PMC9424690, “Phosphonic acid-containing inhibitors of tyrosyl-DNA phosphodiesterase 1” (Frontiers in Chemistry, 2022).

Structures are written as SMILES. Where two headings read alike, the source gives them in different places. Bounds are passed on as bounds.

In data set [1] the target is T1, full-length TDP1 (Homo sapiens, UniProt Q9NUW8).
T1 construct: was incubated with recombinant full-length TDP1 or TDP1 (148–608) (40 p.m.)
Also on record: method as in Zhao et al., 2021. The following applies: gel-based fluorescence assay, compounds reported in previous paper, ref Zhao et al., 2021; cited from earlier work.

In data set [2] the target is T1, full-length TDP1. Briefly: Gel-based fluorescence assay of TDP1-catalyzed hydrolysis, full-length TDP1. The format is biochemical. The settings on record: for IC50: full-length recombinant TDP1, 5′-Cy5 N14Y DNA substrate, 15 min, room temperature, repeated three times. How it is done:
(§1) The synthetic products were examined for their ability to inhibit TDP1 catalysis in in vitro gel-based fluorescence assays as previously described ([Lountos et al., 2019]; [Zhao et al., 2021]). A 5′-Cy5-labelled DNA substrate (N14Y, 5′-Cy5-[…]-pY-3′) was incubated in TDP1 reaction buffer with recombinant TDP1 ([…].) or truncated TDP1 (148–608) in the absence or presence of inhibitors for 15 min at room temperature. Inhibitors were evaluated at concentrations ranging from 12 μM to 27 mM (Figure 4). The TDP1 inhibition values were calculated based on gel images of cleavage product (N14P, 5′-Cy5-[…]-p-3′) shown in Figure 4 and listed in Table 1.
(§2) The inhibition of TDP1 was also conducted according to gel-based as previously described ([Lountos et al., 2019]; [Zhao et al., 2021]). Briefly, the DNA substrate (1 nM, 5′Cy5-[…]-pY-3′) was incubated with recombinant full-length TDP1 or TDP1 (148–608) (40 p.m.) in the absence or presence of inhibitors for 15 min at room temperature in TDP1 reaction buffer (50 mM Tris HCl, pH 7.5, 80 mM KCl, 2 mM EDTA, 1 mM DTT, 40 μg/ml BSA and 0.01% Tween-20). Reactions were stopped by adding an equal volume of gel loading buffer (99.5% (v/v) formamide, 5 mM EDTA). Samples were then subjected to a 20% denaturing PAGE gel following by gel scanning using a Typhoon FLA 9500 scanner (GE Healthcare). The IC50 values of TDP1 inhibitors were calculated by comparing the percentage of cleavage product (5′Cy5-[…]-p-3′) to DMSO control.

For data set [3], the target named is T2, TDP1 (148–608) (Homo sapiens, UniProt Q9NUW8).
T2 construct: was incubated with recombinant full-length TDP1 or TDP1 (148–608) (40 p.m.)
The data set is described as follows: Gel-based fluorescence assay of TDP1-catalyzed hydrolysis, truncated TDP1 (148–608). The format is biochemical. The settings on record: for IC50: truncated TDP1 (148–608) catalytic domain, 5′-Cy5 N14Y DNA substrate, 15 min, room temperature, repeated three times. How it is done: as §1, §2

The nature of data set [4]: Drug solubility observed at high concentrations in the gel assay. The format is physicochemical. The following applies: high concentrations in TDP1 gel assay (crescent vague bands); series up to 9 mM (3c) or 27 mM. How it is done:
FIGURE 4 Representative gels for inhibition of full-length TDP1-catalyzed hydrolysis by phenylphosphonic acids 3a—3e and benzylphosphonic acids 4a—4c. In each gel: lane 1, N14Y only; lane 2, N14Y and TDP1; lanes 3–10, 3-fold serial dilution of drugs from 12 μM to 27 mM except for 3c from 12 μM to 9 mM.

T2 sequence (Q9NUW8 148-608): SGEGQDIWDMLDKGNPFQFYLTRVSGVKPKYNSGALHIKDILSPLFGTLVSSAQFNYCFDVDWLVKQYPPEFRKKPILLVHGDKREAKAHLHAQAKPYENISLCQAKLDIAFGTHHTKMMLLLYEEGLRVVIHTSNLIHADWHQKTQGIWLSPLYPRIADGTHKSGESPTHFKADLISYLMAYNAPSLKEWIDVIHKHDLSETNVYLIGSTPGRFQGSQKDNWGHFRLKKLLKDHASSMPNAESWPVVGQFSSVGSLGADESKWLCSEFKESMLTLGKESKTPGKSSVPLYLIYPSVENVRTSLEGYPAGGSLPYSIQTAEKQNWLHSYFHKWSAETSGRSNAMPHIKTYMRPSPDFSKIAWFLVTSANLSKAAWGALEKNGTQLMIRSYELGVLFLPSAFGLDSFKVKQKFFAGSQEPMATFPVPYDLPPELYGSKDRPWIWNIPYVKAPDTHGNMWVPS
T1 sequence (Q9NUW8 whole entry): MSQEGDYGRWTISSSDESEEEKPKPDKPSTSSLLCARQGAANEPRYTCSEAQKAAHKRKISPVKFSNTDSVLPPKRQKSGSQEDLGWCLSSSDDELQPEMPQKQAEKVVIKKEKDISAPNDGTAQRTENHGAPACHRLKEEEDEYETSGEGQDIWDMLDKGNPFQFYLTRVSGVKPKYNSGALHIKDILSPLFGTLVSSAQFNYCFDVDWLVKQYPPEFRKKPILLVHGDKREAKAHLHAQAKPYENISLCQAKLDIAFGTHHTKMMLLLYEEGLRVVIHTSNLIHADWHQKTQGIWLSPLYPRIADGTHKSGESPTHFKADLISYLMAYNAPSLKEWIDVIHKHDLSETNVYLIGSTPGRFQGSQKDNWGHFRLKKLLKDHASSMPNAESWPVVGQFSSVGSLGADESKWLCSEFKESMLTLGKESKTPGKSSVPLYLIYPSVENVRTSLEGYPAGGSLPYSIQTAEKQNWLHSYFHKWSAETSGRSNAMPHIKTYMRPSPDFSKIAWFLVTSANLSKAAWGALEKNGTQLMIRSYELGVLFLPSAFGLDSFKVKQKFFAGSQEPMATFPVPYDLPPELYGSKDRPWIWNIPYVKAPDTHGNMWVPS

As to `O=C(O)c1ccc(Nc2c(-c3ccccc3)nc3cnccn23)cc1C(=O)O` [Compound 2a], in data set [1], the IC50 (in general, the concentration that inhibits the measured activity by half) is > 100 µM.

As for `O=P(O)(O)c1ccc(Nc2c(-c3ccccc3)nc3cnccn23)cc1` [Compound 3a, (4-((2-Phenylimidazo [1,2-a]pyrazin-3-yl)amino)phenyl)phosphonic acid], the IC50 is 2450 ± 36 µM in data set [2] and 4720 ± 430 µM in data set [3].

Turning to `O=P(O)(O)c1ccc(Nc2c(-c3ccccc3)nc3ccccn23)cc1` [Compound 3b, (4-((2-Phenylimidazo [1,2-a]pyridin-3-yl)amino)phenyl)phosphonic acid], the half-inhibitory concentration (IC50) in data set [2] worked out at 1660 ± 160 µM; in data set [3], 3810 ± 751 µM.

Turning to `O=P(O)(O)c1ccc(Nc2c(-c3ccccc3)nc3cc(-c4ccccc4)ccn23)cc1` [Compound 3c, (4-((2,7-Diphenylimidazo [1,2-a]pyridin-3-yl)amino)phenyl)phosphonic acid], the results for the half-maximal inhibitory concentration (IC50) in data set [2] and in data set [3] were 545 ± 8 µM and 225 ± 2.3 µM, respectively. In data set [3] (TDP1 (148–608) vs full-length TDP1), the “More potent using catalytic domain TDP1 (148–608) relative to full-length TDP1” value was determined as 2 fold. The Drug solubility result in data set [4] is reported as “poor drug solubility”.

On to `O=P(O)(O)c1ccc(Nc2c(-c3ccccc3O)nc3ccccn23)cc1` [Compound 3d, (4-((2-(2-Hydroxyphenyl)imidazo [1,2-a]pyridin-3-yl)amino)phenyl)phosphonic acid], for which the IC50 in data set [2] stood at 1580 ± 166 µM; in data set [3] it was 4480 ± 50 µM.

On to `O=P(O)(O)c1ccc(Nc2c(-c3ccccc3O)nc3cc(-c4ccccc4)ccn23)cc1` [Compound 3e, (4-((2-(2-Hydroxyphenyl)-7-phenylimidazo [1,2-a]pyridin-3-yl)amino)phenyl)phosphonic acid], for which the IC50 in data set [2] was 293 ± 7.5 µM; in data set [3] it was 605 ± 32 µM. Besides, the Drug solubility entry in data set [4] is recorded as “poor drug solubility”.

As to `O=P(O)(O)Cc1ccc(Nc2c(-c3ccccc3)nc3cnccn23)cc1` [Compound 4a, (4-((2-Phenylimidazo [1,2-a]pyrazin-3-yl)amino)benzyl)phosphonic acid], the IC50 in data set [2] was found to be 1280 ± 112 µM; in data set [3], 4360 ± 472 µM.

As to `O=P(O)(O)Cc1ccc(Nc2c(-c3ccccc3)nc3ccccn23)cc1` [Compound 4b, (4-((2-Phenylimidazo [1,2-a]pyridin-3-yl)amino)benzyl)phosphonic acid], the results for the IC50 in data set [2] and in data set [3] were 1650 ± 850 µM and 4810 ± 228 µM, respectively.

Take `O=P(O)(O)Cc1ccc(Nc2c(-c3ccccc3)nc3cc(-c4ccccc4)ccn23)cc1` [Compound 4c, (4-((2,7-Diphenylimidazo [1,2-a]pyridin-3-yl)amino)benzyl)phosphonic acid]: the “Increase of inhibitory potency on adding a 7-phenyl group” value in data set [2] (full-length TDP1, 3c and 3e relative to 3b and 3d, 4c relative to 4b) was “approximately 3 fold”. Further, the IC50 in data set [2] was 583 ± 11.5 µM; in data set [3] it was 1190 ± 350 µM.
